Results taken from patent publication US10278971B2, “Fluorocyclopentenylcytosine methods of use” (Rexahn Pharmaceuticals, Inc., priority 2015, dated 2019).

What was measured:
SW1573/G- = experiment: Clonogenic assay, radiosensitizing effect; type: cell-based, human; conditions: 1 μM pre-incubation 24 h, irradiation
Protocol: (§1) Exponential growing A2780, SW1573, A549, H460 and SW1573/G-cells were exposed to 1 μM RX-3117 or untreated (control) for 24 h and irradiated with single doses γ-radiation (0-6 Gy) using a ^60Co source (Gammacell 200, Atomic Energy of Canada, Ltd). Subsequently, 500 cells/T25 flasks were plated and allowed to form colonies. After ten days colonies were fixed with 100% ethanol and stained with 10% Giemsa stain solution (Merck Chemicals BV, Amsterdam, the Netherlands) for colonies counting. Plating efficiency (PE) was calculated by dividing the number of colonies formed through the number of cells plated and normalized for cytotoxicity induced by control. To illustrate the effect of RX-3117 on radiation, dose modifying factor (DMF) was calculated as described earlier (Bijnsdorp I V, van den Berg J, Kuipers G K, Wedekind L E, Slotman B J, van Rijn J, Lafleur M V M and Sminia P: Radiosensitizing potential of the selective cyclooygenase-2 (COX-2) inhibitor meloxicam on human glioma cells. J Neurooncol 85: 25-31, 2007).

A549 [1] = experiment: Clonogenic assay, radiosensitizing effect; type: cell-based, human; conditions: A549, 1 μM pre-incubation 24 h, irradiation 0-6 Gy
Protocol: as §1

A2780 = experiment: Clonogenic assay, radiosensitizing effect; type: cell-based, human
Protocol: as §1

H460 = experiment: Clonogenic assay, radiosensitizing effect; type: cell-based, human; conditions: H460, 1 μM pre-incubation 24 h, irradiation
Protocol: as §1

[2] = test system: advanced malignant tumors; experiment: Efficacy in subjects with advanced malignant tumors; type: in vivo, human; conditions: 48 subjects enrolled
Protocol: The efficacy, safety and tolerability of RX-3117 at various doses and frequencies were evaluated (see Example 4, above). Subjects with advanced malignant tumors were administered capsules containing RX-3117 at various doses, from TIWK to 7 times per week for 3 weeks with 1 week off during each 4-week cycle. Dose escalation begins with an accelerated design treating 1 subject per dose (Simon et al., J. Natl. Cancer Inst., 89(15):1138-47 (1997) followed by a standard 3+3 design using a modified Fibonacci sequence after the occurrence of a single related Grade 2 or greater adverse event. Table 4 (above) summarizes the dosing schedule.

SW1573 cells = experiment: Protein expression by western blot; type: cell-based, human
Protocol: (§2) The mechanism of cell cycle arrest was investigated by measuring cell cycle proteins expression using western blotting. The influence of RX-3117 on protein expression during different treatment conditions was analyzed by western blot. Cells were lysed using cell lysis buffer 1× (Cell Signaling, Danvers, Mass., USA) containing 4% protease inhibitor cocktail (Roche Diagnostics, Mannheim, Germany) on ice for 30 minutes and centrifuged for 10 minutes at 4° C. at 14,000 rpm. The protein containing supernatant was collected and the Bio-Rad assay was performed to determine protein amount as described in Lemos et al., Pharmacogenomics, 12(2):159-70 (2011). The following antibodies were used for protein expression: DNMT1 (Cell Signaling, 1:1000 #5032S), DNMT3A (Cell Signaling 1:1000 #2160S), DNMT3B (Abcam, 1; 1000), Chk2 (Cell Signaling 1:1000 #6334P), Chk1 (Cell Signaling 1:1000), p-CDC25C (Cell Signaling 1:1000 #4901S), Cdk1 (Cell Signaling 1:1000 #9112S), Cdk2 (Cell Signaling 1:1000 #2546S), wee1 (Cell Signaling 1:1000), 5139-γH2A.X (Cell Signaling, 1:1000), β actin (Sigma, 1:10,000), Caspase 9 (Cell Signaling, 1:1000), PARP (Roche 2003, 1:1000), p53 (Cell Signaling, 1:1000, #9282). The antibodies were diluted in 1:1 solution Rockland buffer (Rockland Inc., Philadelphia, Pa., USA) and PBS supplemented with 0.05% Tween® 20. The proteins were separated in 20% SDS-PAGE and transferred to a PVDF membrane. For fluorescent signal secondary antibodies goat anti-mouse InfraRedDye and goat anti-rabbit InfraRedDye were used. The proteins were detected by an Odyssey InfraRed Imager (Li-COR Bioscience, Lincoln, Nebr., USA).
(§3) The influence of RX-3117 on protein expression during different treatment conditions was analyzed by western blot. Cells were lysed using 1× cell lysis buffer (Cell Signaling, Danvers, Mass., USA) containing 4% protease inhibitor cocktail (Roche Diagnostics, Mannheim, Germany) on ice for 30 minutes and centrifuged for 10 minutes at 4° C. at 14,000 rpm. Bio-Rad assay was performed to determine protein amount in the collected supernatant as described earlier (Lemos C, Kathmann I, Giovannetti E, Calhau C, Jansen G and Peters G J: Impact of cellular folate status and epidermal growth factor receptor expression on BCRP/ABCG2-mediated resistance to gefitinib and erlotinib. Br J Cancer 100: 1120-7, 2009). The following antibodies were used for protein expression: γH2A.X (cat#9718, Cell Signaling, 1:1000), β-actin (Sigma, 1:10,000), Cdc25C Ser216 (cat#4901, Cell Signaling, 1:1000), Cdk1 Tyr15 (cat#9111, Cell Signaling, 1:1000), […] (cat#2197S, Cell Signaling, 1:1000), Histone 3 (cat#4499, Cell Signaling). Antibodies were diluted in 1:1 solution with Rockland buffer (Rockland Inc, Philadelphia, Pa.) and phosphate buffered saline (PBS) supplemented with 0.05 Tween 20. Proteins were separated in 20% SDS-PAGE gel and transferred to polyvinylidene difluoride (PVDF) membrane. For fluorescent signal secondary anti-bodies goat anti-mouse InfraRedDye and goat anti-rabbit InfraRedDye were used. Proteins were detected by an Odyssey InfraRed Imager (Li-COR Bioscience, Lincoln, Nebr.).

A549 cells = experiment: Protein expression by western blot; type: cell-based, human
Protocol: as §2, §3

A549 [3] = conditions: as reported in Peters et al. 2013; cited from earlier work
SW1573/G = conditions: as reported in Peters et al. 2013; cited from earlier work
[4] = SW1573, 10 μM, 48 hour exposure
[5] = SW1573, 24 hour exposure to increasing concentrations

## Nc1ccn([C@@H]2C(F)=C(CO)[C@@H](O)[C@H]2O)c(=O)n1 [RX-3117, 4-amino-1-((1S,4R,5S)-2-fluoro-4,5-dihydroxy-3-hydroxymethyl-cyclopent-2-enyl)-1H-pyrimidin-2-one]
SW1573/G-
  dose modifying factor (DMF): 1.4
A549 [1]
  dose modifying factor (DMF): 1.8
A2780; A2780, 1 μM pre-incubation 24 h, irradiation 0-6 Gy
  dose modifying factor (DMF): 1.8
A2780; A2780, pre-incubation 1 μM 24 h, 4 Gy
  plating efficiency compared to control: five times lower
H460
  radiosensitizing effect: poor radiosensitizing effect
[2]; various oral doses and frequencies
  subjects with stable disease for 1 to 10 cycles: Seventeen
[2]; pancreatic, breast and mesothelioma cancers
  subjects with tumor burden reduction: 3 subjects
SW1573 cells; SW1573, 0.3 μM plus irradiation
  γH2A.X protein expression, combination with irradiation: more pronounced
SW1573 cells; SW1573, 0.3 μM, 48 h exposure
  double strand break damage marker γH2A.X: increased
SW1573 cells; SW1573, 5 μM, 24 hr exposure
  expression of p16INK4A and MGMT: increased
SW1573 cells; [4]
  Chk1 and Cdk2 expression levels: increased
  p-Cdc25C expression levels: decreasing
SW1573 cells; [5]
  cleaved PARP: induced cleaved PARP
  pro-caspase 9: decreased
  wee1 expression levels: decreased
SW1573 cells; SW1573, 48 hour exposure
  double-strand breaks (DSB), biomarker γH2A.X: induced double-strand breaks
A549 cells; A549, 1 μM and 5 μM
  p53 expression levels: increased
A549 cells; A549, 5 μM, 24 hr exposure
  expression of p16INK4A and MGMT: increased
A549 cells; A549, 1-75 μM
  DNMT3A and DNMT3B expression levels: increased
A549 cells; A549, 24 hour exposure to increasing concentrations
  pro-caspase 9: decreased
A549 [3]
  IC50: 8.3 µM
SW1573/G
  IC50: 7.3 µM
